Source: USRE38825E1, “Glyphosate tolerant plants” (Monsanto Technology LLC, priority 1990, dated 2005)

Legend:
[1] = molecular target: glyphosate oxidoreductase from LBAA, wild type (w1w2w3: SER84, LYS153, HIS334), SEQ ID NO:5 (Ochrobactrum sp. G-1, UniProt D2KI28, S2A); test: Kinetic analysis of glyphosate oxidoreductase, wild type (crude E. coli lysate, glyoxylate-DNPH assay); type: biochemical, bacterial isolate LBAA (Pseudomonas strain LBAA)
From the text: An alternate method for the assay of glyphosate oxidoreductase involves reaction of the sample with 2,4-dinitrophenylhydrazine and determination of the amount of the glyoxylate-2,4-dinitrophenylhydrazone by HPLC analysis as described in detail in a later section.
Prior examples of engineered herbicide resistance by enzymatic inactivation of the herbicide have utilized enzymes with an ability to bind and metabilize the herbicides much more efficiently than glyphosate oxidoreductase metabolizes glyphosate.
The mutagenesis procedure used was that of Mn++-poisoned PCR and the template was a linearized glyphosate oxidoreductase gene plasmid containing the synthetic glyphosate oxidoreductase gene (SEQ ID NO:8). The oligonucleotide primers used were homologous to regions in the vector and flanking the glyphosate oxidoreductase gene. The PCR conditions employed were as follows: 1 minute at 94° C., 2 minutes at 55° C., and 3 minutes at 72° C. and with 35 cycles. A 5:1 ratio of dCTP+dGTP+TTP to dATP was used. The reactions contained MnCl2 at 125, 250, 375, or 500 μM. After the reaction, the amplified product was recloned into a vector containing a weak E. coli promoter. This vector was a pBR327 derivative containing the araBAD promoter and suitable cloning sites. One hundred colonies from this cloning step were then screened in E. coli GB993 for improved glyphosate tolerance and utilization phenotypes in media composed of MOPS minimal medium with glyphosate and Pi or with glyphosate alone, respectively. Growth rates were determined by measuring A550 over a 96 hour period. […] The glyphosate oxidoreductase gene was recloned into the expression vector portion and this phenotype verified. All kinetic analysis was performed on crude E. coli lysates. Putative glyphosate oxidoreductase variant proteins were overexpressed after subcloning the NcoI/HindIII variant glyphosate oxidoreductase gene into PrecA-gene10L expression vector. For overexpression in PrecA-gene10L constructs, GB993 cells containing the vector were induced at a Klett=110-120 in M9 minimal medium with 50 μg/ml nalidixic acid and allowed to grow for 2.5 hours at 37° C. with vigorous shaking. Cells were harvested by centrifugation at 4000 g, 5 minutes at 4° C., and resuspend in 100 mM Tris-HCl, pH 7.1, 1 mM EDTA, 35 mM KCl, 20% glycerol, and 1 mM benzamidine at 3 ml/g cell pellet. Lysates were prepared by breaking the cells in a French press, twice, at 1000 psi. […] Protein concentrations were determined using the Bio-Rad protein dye-binding assay. […] Ten minutes was determined to be the optimal time for the enzyme assay using 10 μg lysate. […] Enzyme activity was determined from the amount of glyoxylate-DNPH adduct formed by measuring A520 against a standard of glyoxylate. […]

[2] = test system: Agrobacterium sp. strain T10 glyphosate oxidoreductase; test: Km of glyphosate oxidoreductase from Agrobacterium sp. strain T10; type: biochemical
Procedure: A population of bacteria was isolated from a fixed-bed immobilized cell column, which employed Mannville R-635 diatomaceous earth beads, by plating on Tryptone Soy Agar (Difco), containing cylcoheximide at 100 ug/ml, and incubating at 28° C. The column had been run for three months on a waste-water feed from the Monsanto Company's Luling, MS, glyphosate production plant. The column contained 50 mg/ml glyphosate and NH3 as NH4Cl. Total organic carbon was 300 mg/ml and BOD's (Biological Oxygen Demand—a measure of “soft” carbon availability) was less than 30 mg/ml. This treatment column has been described (Heitkamp et al., 1990). […] Chromosomal DNA was prepared from this isolate and subjected to the same PCR procedure and with the same primers as described above for the strain LBr. A fragment of the correct size was generated and cloned into the E. coli expression vector. The glyphosate oxidoreductase activity was assayed and the Km for glyphosate also determined: […]

SMILES: O=C(O)CNCP(=O)(O)O [glyphosate, N-phosphonomethyl-glycine]
- VmKm ([1]; domain switch experiment, wt (w1w2w3), substrate glyphosate): 0.022
- Km ([1]; read-out: K for glyphosate, general statement on the glyphosate oxidoreductase enzyme): 20 to 30 mM
- VmKm (Glyp) ([1]; wild type): .03
- app Vm (Glyp) ([1]; wild type, pH 7.4, 30° C., enzyme amount by immunoblot): 0.8 U/mg
- Km [2]: 28 mM
